Drawing on US8609635B2, “Fused tricyclic silyl compounds and methods of use thereof for the treatment of viral diseases” (priority 2010, dated 2013), this text covers EC50 for 17 molecules.

Where two headings read alike, the source gives them in different places.

One assay deals with HCV replicon gt2a_JFH. Kind of assay: Cell-based HCV replicon assay (TaqMan), genotype 2a (JFH). The conditions noted are these: replicon 2a (JFH), replicon RNA by TaqMan, day 3. On the procedure:
(§1) Measurement of inhibition by compounds of the present invention was performed using the HCV replicon system. Several different replicons encoding different HCV genotypes or mutations were used. In addition, potency measurements were made using different formats of the replicon assay, including different ways of measurements and different plating formats. See Jan M. Vrolijk et al., A replicons-based bioassay for the measurement of interferons in patients with chronic hepatitis C, 110 J. VIROLOGICAL METHODS 201 (2003); Steven S. Carroll et al., Inhibition of Hepatitis C Virus RNA Replication by 2′-Modified Nucleoside Analogs, 278(14) J. BIOLOGICAL […] 11979 (2003). However, the underlying principles are common to all of these determinations, and are outlined below.
(§2) Compounds of the present invention were assayed for cell-based anti-HCV activity using the following protocol. Replicon cells were seeded at 5000 cells/well in 96-well collagen I-coated Nunc plates in the presence of the test compound. Various concentrations of test compound, typically in 10 serial 2-fold dilutions, were added to the assay mixture, with the starting concentration ranging from 250 μM to 1 μM. The final concentration of DMSO was 0.5%, fetal bovine serum was 5%, in the assay media. Cells were harvested on day 3 by the addition of 1× cell lysis buffer (Ambion cat #8721). The replicon RNA level was measured using real time PCR (TaqMan® assay). The amplicon was located in 5B. The PCR primers were: 5B.2F, […] (SEQ. ID NO. 1); 5B.2R, […] (SEQ. ID NO. 2); the probe sequence was FAM-labeled […] (SEQ. ID NO. 3). GAPDH RNA was used as endogenous control and was amplified in the same reaction as NS5B (multiplex PCR) using primers and VIC-labeled probe recommended by the manufacturer (PE Applied Biosystem). The real-time RT-PCR reactions were run on ABI PRISM 7900HT Sequence Detection System using the following program: 48° C. for 30 minutes, 95° C. for 10 minutes, 40 cycles of 95° C. for 15 sec, 60° C. for 1 minute. The ΔCT values (CT5B-CTGAPDH) were plotted against the concentration of test compound and fitted to the sigmoid dose-response model using XLfit4 (MDL). […] Alternatively, to quantitate the absolute amount of replicon RNA, a standard curve was established by including serially diluted T7 transcripts of replicon RNA in the Taqman assay. All TaqMan® reagents were from PE Applied Biosystems. Such an assay procedure was described in detail in e.g. Malcolm et al., Antimicrobial Agents and Chemotherapy 50: 1013-1020 (2006).
(§3) Wherein gt1a_H77 was prepared as described in Yi et al., J Virol. 2004, 78(15):7904-15; gt1b_con1 was prepared as described in Lohmann et al., Science 1999, 285(5424):110-3; and gt2a_JFH was prepared as described in Kato et al., Gastroenterology. 2003, 125(6):1808-17. Chimeric replicons contain NS5A from patient isolates of genotypes 1a, 1b, 2b, 3a and 4a as indicated.
In general terms: In antiviral work, replicon cells carry a viral genome segment that copies itself.

The next assay relates to HCV replicon gt1a_H77. Kind of assay: Cell-based HCV replicon assay (TaqMan), genotype 1a (H77). The conditions noted are these: replicon 1a (H77), replicon RNA by TaqMan, day 3. Here is the method:
as §1, §2, §3

The subject of another assay is HCV replicon gt1b_con1. The assay can be described thus: Cell-based HCV replicon assay (TaqMan), genotype 1b (Con1). The conditions noted are these: replicon 1b (Con1), replicon RNA by TaqMan, day 3. Here is the method: as §1, §2, §3
The test system of assay [1] is HCV chimeric replicon with NS5A of genotype 3a (NC00982). Kind of assay: Cell-based HCV replicon assay (TaqMan), chimeric replicon genotype 3a (NC00982). The conditions noted are these: replicon RNA by TaqMan, day 3. On the procedure: as §1, §2, §3
In assay [2] the test system is HCV replicon 1a (Y93H) mutant. Kind of assay: Cell-based HCV replicon assay (TaqMan), genotype 1a mutant Y93H. The note with it: read-out: HCV replicon EC50 1a (Y93H). Here is the method:
as §1, §2, §3

Assay [3] concerns HCV chimeric replicon with NS5A of genotype 4a (DQ41878). The assay can be described thus: Cell-based HCV replicon assay (TaqMan), chimeric replicon genotype 4a (DQ41878). The note with it: Hepatitis C virus, 72 h, read-out: HCV replicon EC50 4a (DQ41878). Here is the method:
as §1, §2, §3

The mark [4] stands for this setting: Hepatitis C virus, 72 h, read-out: HCV replicon EC50 3a (NC00982), chimeric replicon 3a (NC00982).

Usually EC50 stands for the concentration needed to bring the measured effect to its halfway point. As for `COC(=O)NC(C(=O)N1C[Si](C)(C)CC1c1ncc(-c2ccc(-c3ccc4c(ccc5nc([C@@H]6CCCN6C(=O)C(NC(=O)OC)C(C)C)[nH]c54)c3)cc2)[nH]1)C(C)C` (stereo partly drawn) [Compound 2], the EC50 in the assay on HCV replicon gt2a_JFH (Hepatitis C virus, 72 h) amounted to 0.019 nM; in the assay on HCV replicon gt1a_H77 (Hepatitis C virus, 72 h) it was 0.01 nM; in the assay on HCV replicon gt1b_con1 (Hepatitis C virus, 72 h) it was 4 pM; in assay [1] (setting [4]) it was 0.05 nM.
`COC(=O)N[C@H](C(=O)N1C[Si](C)(C)C[C@H]1c1ncc(-c2ccc(-c3ccc4c(ccc5nc([C@@H]6CCCN6C(=O)[C@@H](NC(=O)OC)C(C)C)[nH]c54)c3)cc2OCCO)[nH]1)C(C)C` [Compound 44]: the EC50 with HCV replicon gt2a_JFH (Hepatitis C virus, 72 h) is above 10 nM; in the assay on HCV replicon gt1a_H77 (Hepatitis C virus, 72 h) it was above 1 nM; in the assay on HCV replicon gt1b_con1 (Hepatitis C virus, 72 h), 7 pM; in assay [2] (Hepatitis C virus, 72 h), 1390 nM; in assay [1] (setting [4]), 31 nM.
For `COC(=O)NC(C(=O)N1C2CCC(C2)C1c1ncc(-c2ccc(-c3ccc4c(ccc5nc([C@@H]6C[Si](C)(C)CN6C(=O)C(NC(=O)OC)C(C)C)[nH]c54)c3)cc2)[nH]1)C(C)C` (stereo partly drawn) [Compound 15], in that order: 0.12 nM, 0.088 nM, 11 pM, 131 nM and 1 nM.
Take `COC(=O)NC(C(=O)N1C[Si](C)(C)CC1c1ncc(-c2ccc(-c3ccc4c(ccc5nc([C@@H]6C7CCC(C7)N6C(=O)C(NC(=O)OC)C(C)C)[nH]c54)c3)cc2)[nH]1)C(C)C` (stereo partly drawn) [Compound 16]: the EC50 in the assay with HCV replicon gt2a_JFH (Hepatitis C virus, 72 h) is 0.06 nM; with HCV replicon gt1a_H77 (Hepatitis C virus, 72 h) it was 0.04 nM; with HCV replicon gt1b_con1 (Hepatitis C virus, 72 h), 4 pM; in assay [2] (Hepatitis C virus, 72 h), 146 nM; in assay [1] (setting [4]), 0.23 nM.
Take `COC(=O)N[C@H](C(=O)N1C[Si](C)(C)C[C@H]1c1ncc(-c2ccc(-c3ccc4c(ccc5nc([C@@H]6CC(F)(F)CN6C(=O)[C@@H](NC(=O)OC)C(C)C)[nH]c54)c3)cc2F)[nH]1)C(C)C` [Compound 71]: the EC50 was 0.45 nM in the assay on HCV replicon gt2a_JFH (Hepatitis C virus, 72 h); 0.12 nM with HCV replicon gt1a_H77 (Hepatitis C virus, 72 h); below 2 pM with HCV replicon gt1b_con1 (Hepatitis C virus, 72 h); 188 nM in assay [2] (Hepatitis C virus, 72 h); 0.9 nM in assay [1] (setting [4]).
For `COC(=O)N[C@H](C(=O)N1C[Si](C)(C)C[C@H]1c1ncc(-c2ccc(-c3ccc4c(ccc5nc([C@@H]6CCCN6C(=O)[C@@H](NC(=O)OC)C(C)C)[nH]c54)c3)nc2)[nH]1)C(C)C` [Compound 49], in that order: 0.037 nM, 0.04 nM, 14 pM, 185 nM and 0.2 nM.
For `COC(=O)N[C@H](C(=O)N1C[Si](C)(C)C[C@H]1c1ncc(-c2ccc(-c3ccc4c(ccc5nc([C@@H]6CC(F)(F)CN6C(=O)[C@@H](NC(=O)OC)C(C)C)[nH]c54)c3)cn2)[nH]1)C(C)C` [Compound 72], in that order: 0.496 nM, 0.1 nM, 4 pM, 246 nM and 2.41 nM.
The like results for `COC(=O)N[C@H](C(=O)N1C[Si](C)(C)C[C@H]1c1ncc(-c2ccc(-c3ccc4c(ccc5nc([C@@H]6CCCN6C(=O)[C@@H](NC(=O)OC)C(C)C)[nH]c54)c3)cc2C2CC2)[nH]1)C(C)C` [Compound 47] were, in that order, 1.7 nM, 0.4 nM, 7 pM, 1600 nM and 5.5 nM.
Turning to `COC(=O)N[C@H](C(=O)N1CC(F)(F)C[C@H]1c1ncc(-c2ccc3oc(-c4ccc5c(ccc6nc([C@@H]7C[Si](C)(C)CN7C(=O)[C@@H](NC(=O)OC)C(C)C)[nH]c65)c4)cc3c2)[nH]1)C(C)C` [Compound 42], the EC50 in the assay on HCV replicon gt2a_JFH was above 10 nM; with HCV replicon gt1a_H77 it was 0.012 nM; in the assay with HCV replicon gt1b_con1, 5 pM; in assay [2] (replicon 1a mutant Y93H, replicon RNA by TaqMan, day 3), 103 nM; in assay [1] (chimeric replicon 3a (NC00982), read-out: HCV replicon EC50 3a (NC00982)), 11.4 nM.
`COC(=O)N[C@H](C(=O)N1C[Si](C)(C)C[C@H]1c1ncc(-c2ccc(-c3ccc4c(ccc5nc([C@@H]6CCCN6C(=O)[C@@H](NC(=O)OC)C(C)C)[nH]c54)c3)cc2F)[nH]1)C(C)C` [Compound 48]: the EC50 was found to be 0.07 nM in the assay with HCV replicon gt2a_JFH (Hepatitis C virus, 72 h); 0.05 nM in the assay with HCV replicon gt1a_H77 (Hepatitis C virus, 72 h); 4 pM in the assay with HCV replicon gt1b_con1 (Hepatitis C virus, 72 h); 329 nM in assay [2] (Hepatitis C virus, 72 h); 0.25 nM in assay [1] (setting [4]).
For `COC(=O)N[C@H](C(=O)N1C[Si](C)(C)C[C@H]1c1ncc(-c2ccc(-c3ccc4c(ccc5nc([C@@H]6CCCN6C(=O)[C@@H](NC(=O)OC)C(C)C)[nH]c54)c3)cc2-c2ccncc2)[nH]1)C(C)C` [Compound 51], in that order: above 10 nM, above 1 nM, 50 pM, 8420 nM and above 100 nM.
For `COC(=O)NC(C(=O)N1C[Si](C)(C)CC1c1ncc(-c2ccc(-c3ccc4c(ccc5nc([C@@H]6CCCN6C(=O)C(NC(=O)OC)C(C)C)[nH]c54)c3)s2)[nH]1)C(C)C` (stereo partly drawn) [Compound 20], in that order: 0.3 nM, 0.14 nM, 4 pM, 921 nM and 0.26 nM.
The like results for `COC(=O)N[C@H](C(=O)N1C[Si](C)(C)C[C@H]1c1ncc(-c2ccc(-c3ccc4c(ccc5nc([C@@H]6CCCN6C(=O)[C@@H](NC(=O)OC)C(C)C)[nH]c54)c3)cc2OC)[nH]1)C(C)C` [Compound 46] were, in that order, 0.6 nM, 0.26 nM, 4 pM, 497 nM and 2.4 nM.
For the molecule `COC(=O)N[C@H](C(=O)N1C[Si](C)(C)C[C@H]1c1ncc(-c2ccc(-c3ccc4c(ccc5nc([C@@H]6CCCN6C(=O)[C@@H](NC(=O)OC)C(C)C)[nH]c54)c3)cc2OCCOC(C)=O)[nH]1)C(C)C` [Compound 45], the EC50 in the assay with HCV replicon gt2a_JFH (Hepatitis C virus, 72 h) was above 10 nM; with HCV replicon gt1a_H77 (Hepatitis C virus, 72 h), above 1 nM; with HCV replicon gt1b_con1 (Hepatitis C virus, 72 h), 9 pM; in assay [2] (Hepatitis C virus, 72 h), 2640 nM; in assay [1] (setting [4]) it was 52 nM.
As to `COC(=O)N[C@H](C(=O)N1C[Si](C)(C)C[C@H]1c1ncc(-c2ccc(-c3ccc4c(ccc5nc([C@@H]6CCCN6C(=O)[C@@H](NC(=O)OC)C(C)C)[nH]c54)c3)cc2-c2cccs2)[nH]1)C(C)C` [Compound 50], the EC50 was 1.62 nM in the assay with HCV replicon gt2a_JFH (Hepatitis C virus, 72 h); 0.505 nM with HCV replicon gt1a_H77 (Hepatitis C virus, 72 h); 8 pM with HCV replicon gt1b_con1 (Hepatitis C virus, 72 h); 1150 nM in assay [2] (Hepatitis C virus, 72 h); 3 nM in assay [1] (setting [4]).
For `COC(=O)N[C@H](C(=O)N1CC(O)C[C@H]1c1ncc(-c2ccc(-c3ccc4c(ccc5nc([C@@H]6C[Si](C)(C)CN6C(=O)[C@@H](NC(=O)OC)C(C)C)[nH]c54)c3)cc2)[nH]1)C(C)C` (stereo partly drawn) [Compound 65], in that order: 0.3 nM, 0.06 nM, 4 pM, 44 nM and 1.7 nM.
Regarding `COC(=O)NC(C(=O)N1CCCC1c1ncc(-c2ccc(-c3ccc4c(ccc5nc([C@@H]6C[Si](C)(C)CN6C(=O)C(NC(=O)OC)C(C)C)[nH]c54)c3)cc2)[nH]1)C(C)C` (stereo partly drawn) [Compound 1], the EC50 amounted to 0.003 nM with HCV replicon gt2a_JFH (Hepatitis C virus, 72 h); 0.003 nM in the assay with HCV replicon gt1a_H77 (Hepatitis C virus, 72 h); 3 pM in the assay on HCV replicon gt1b_con1 (Hepatitis C virus, 72 h); 0.067 nM in assay [3]; 0.26 nM in assay [1] (setting [4]).
